Laboratory results published in patent publication EP0358766A1, “METHOD OF STERILIZING PLANT ANTHERS” (VSESOJUZNY NAUCHNO-ISSLEDOVATELSKY INST. SELSKOKHOZYAISTV. …, priority 1988, dated 1989).

Tests used:
[1] = tested on: Winterweizens Sorte Mironowskaya 808; assay: Field test of gametocidal activity (anther sterilisation), winter wheat Mironowskaya 808; type: in vivo, Weizen; details: read-out: Prozentsatz der Sterilität %
[2] = tested on: tetraploidem Roggen Belta; assay: Field test of gametocidal activity, tetraploid rye Belta; type: in vivo; details: period V, 1% aqueous emulsion, 6 kg/ha in 600 l water; for Prozentsatz des Ansetzens von Samen bei freier Bestäubung: control = 100
Source text: (§1) Die gametozide Aktivität der erfindungsgemäßen Sterilisationsmittel war in Feldversuchen in verschiedenen bodenklimatischen Zonen mit Teilstücken von 10 m^2 Größe in dreibis viermaliger Wiederholung festgestellt. Jedes Sterilisationsmittel wurde mindenstens 5 Jahre lang geprüft.
(§2) Die Entwicklung der Perioden der Organogenese wird zytologisch überwacht. Die Behandlung von Pflanzen mit dem Sterilisationsmittel erfolgt am Anfang der fünften Periode der Organogenese nach Kupermann.
(§3) Mit dem Ährenschieben verwirklicht man die Isolierung von Hauptähren und anderen Stockwerken in Pergametbeuteln. Bei Weizen und Tritikale werden Einzelisolatoren benutzt. Bei Roggen schließt man je 1 Ähre von […] verschiedenen nebeneinander befindlichen Pflanzen unter einen gemeinsamen Isolator ein. Bei Hirse wird jede Rispe getrennt isoliert. Der Sterilitätsprozentsatz (X) für Weizen, Roggen, Tritikale und Hirse wird nach der Formel [formula] ermittelt.
(§4) Die Kornzahl in nicht isolierten Ähren von Kontrollpflanzen wird bedingt für 100 % Ansetzen bei freier Bestäubung angenommen.
(§5) Um zuverlässige Angaben zu erhalten, verwendet man 20 bis 25 Isolatoren je Wiederholung für Weizen und Tritikale, 10 bis 15 Isolatoren jeder Wiederholung für Roggen und Hirse.
Pflanzen von tetraploidem Roggen Belta werden in der V.Periode der Organogenese (nach Kupermann) mit einer 1%igen wäßrigen Emulsion von 1,1,3-Tribrompropan, 1,1,3--Tribrom-4-chlorbutan, 1,1,2,3-Tetrabrompropan, 1,2,3-Tribrompropan, 1,1,3-Tribrom-3-chlorpropan bzw. 1,2-Dibrom--3-chlorpropan behandelt.
Die Emulsion enthält 0,5 Masse% C12-C14-Kalziumalk^yl-benzolsulfonat und 0,01 Masse% Dimethylsulfoxid. Der Verbrauch an Präparat beträgt 6 kg/ha bei 600 1 Wasserdurchsatz.Die Prüfergebnisse sind in der Tabelle 7 angegeben. Die gleichen Ergebnisse sind bei der Behandlung von tetraploidem Roggen Belta in der VI. Periode der Organogenese erhalten.

[3] = Toxicity in animal test (LD50); set-up: species or system Mäuse; details: in vivo, mice stated only for 1,1,3-Tribrompropan, species not given for the others
Source text: Alle erfindungsgemäßen Polybromalkane, die als Sterilisationsmittel zur Verwendung kommen, waren auf die Toxizität im Tierversuch geprüft. Die Prüfergebnisse haben ergeben, daß die angegebenen Verbindungen von schwacher oder mittlerer Toxizität sind.

[4] = tested on: diploidem Roggen Voskhod 2; assay: Field test of gametocidal activity, diploid rye Voskhod 2; type: in vivo; details: period V, 1% aqueous emulsion, 10 kg/ha in 1000 l water
Source text: as §1, §2, §3, §4, §5
Pflanzen von diploidem Roggen Voskhod 2 werden in der V. Periode der Organogenese mit einer 1%igen wäßrigen Emulsion von 1,1,3-Tribrompropan, 1,1,3-Tribrom-4-chlorbutan bzw. 1,1,2,3-Tetrabrompropan behandelt. Die Emulsion enthält 0,5 Masse% C12-C14-Kalziumalkylbenzolsulfonat und 0,01 Masse% Dimethylformamid. Der Verbrauch an Präparat beträgt 10 kg/ha bei 1000 1 Wasserdurchsatz. Die Prüfergebnisse sind in der Tabelle 14 angegeben. Die gleichen Ergebnisse sind bei der Behandlung von diploidem Roggen Voskhod 2 in der VI. Periode der Organogenese erhalten..

[5] = tested on: Tritikale Ampfindiploid 206; assay: Field test of gametocidal activity, triticale Amphidiploid 206; type: in vivo; details: period V, 1% aqueous emulsion, 6 kg/ha in 600 l water; for Prozentsatz des Ansetzens von Samen bei freier Bestäubung: control = 100
Source text: as §1, §2, §3, §4, §5
Pflanzen von Tritikale Ampfindiploid 206 werden in der V.Periode der Organogenese (nach Kupermann) mit einer 1%igen wäßrigen Emulsion von 1,1,3-Tribrompropan bzw. 1,2-Dibromheptan behandelt. Die Emulsion enthält 0,5 Masse% C12-C14--Kalziumalkylbenzolsulfonat und 0,01 Masse% Dimethylformamid. Der Verbrauch an Präparat beträgt 6 kg/ha bei 600 1 Wasserdurchsatz. Die Prüfergebnisse sind in der Tabelle 6 angegeben.
Die gleichen Ergebnisse sind bei der Behandlung von Tritikale Amphidiploid 206 in der VI. Periode der Organogenese erhalten.

[6] = tested on: Tritikale PRAG-109; assay: Field test of gametocidal activity, triticale PRAG-109; type: in vivo; details: period V, 1% aqueous emulsion, 6 kg/ha in 600 l water; for Prozentsatz des Ansetzens von Samen bei freier Bestäubung: control = 100
Source text: as §1, §2, §3, §4, §5
Pflanzen von Tritikale PRAG-109 werden in der V.Periode der Organogenese (nach Kupermann) mit einer 1%igen wäßrigen Emulsion von 1,1,1,3-Tetrabromheptan, 1,1,3-Tribromheptan, 1,2,3-Tribrompropan bzw. 1,2-Dibrom-3-chlor- propan behandelt. Die Emulsion enthält 0,5 Masse% C12-C14--Kalziumalkylbenzolsulfonat und 0,01 Masse% Dodezylsulfat. Der Verbrauch an Präparat beträgt 6 kg/ha bei 600 1 Wasserdurchsatz. Als Kontrolle dienen Pflanzen, behandelt mit dem Verdünner ohne Sterilisationsmittel. Die Prüfergebnisse sind in der Tabelle 5 angegeben. Die gleichen Ergebnisse sind bei der Behandlung von Tritikale PRAG-109 in der VI. Periode der Organogenese erhalten.

[7] = workplace air limit; cited from earlier work
[8] = tested on: Sommerweizens Sorte Rodina; assay: Field test of gametocidal activity, spring wheat Rodina; type: in vivo, Weizen; details: period V, 1% aqueous emulsion, 6 kg/ha in 600 l water; for Prozentsatz des Ansetzens von freier Bestäubung: control = 100
Source text: as §1, §2, §3, §4, §5
Pflanzen des Sommerweizens Sorte Rodina werden in der V.Periode der Organogenese (nach Kupermann) mit einer l%igen wäßrigen Emulsion von 1,3-Dibrompropan, 1,1,1,3-Tetrabromheptan, 1,1,3-Tribromheptan bzw. 1,2-Dibromheptan behandelt. Die Emulsion enthalt 0,5 Masse% C12-C14 Kalziumalk^ylbenzol- sulfonat und 0,01 Masse% Dodezylsulfat. Der Verbrauch an Präparat beträgt 6 Kg/ha bei 600 1 Wasserdurchsatz. Als Kontrolle dienen Pflanzen, behandelt mit dem Verdünner ohne Sterilisationsmittel.
Die Prüfergebnisse sind in der Tabelle 3 angegeben. Die gleichen Ergebnisse sind bei der Behandlung des Sommerweizens Sorte Rodina in der VI. Periode der Organogenese erhalten.

[9] = tested on: Sommerweizens Sorte Botanicheskaya 4; assay: Field test of gametocidal activity, spring wheat Botanicheskaya 4; type: in vivo, Weizen; details: period V, 1% aqueous emulsion, 6 kg/ha in 600 l water; for Prozentsatz des Ansetzens von Samen bei freier Bestäubung: control = 100
Source text: as §1, §2, §3, §4, §5
Pflanzen des Sommerweizens Sorte Botanicheskaya 4 werden in der V. Periode der Organogenese (nach Kupermann) mit einer 1%igen wäßrigen Emulsion von 1,3-Dibrompropan, 1,1,1,3-Tetrabromheptan, 1,1,2-Tribromheptan bzw. 1,2--Dibromheptan behandelt. Die Emulsion enthält 0,5 Masse% C12-C14-Kalziumalkylbenzolsulfonat und 0,01 Masse% Dimethylsulfoxid als Adjuvans. Der Verbrauch an Präparat beträgt 6 kg/ha bei 600 1 Wasserdurchsatz. Als Kontrolle dienen Pflanzen, behandelt mit dem Verdünner ohne Sterilisationsmittel.
Die Prüfergebnisse sind in der Tabelle 4 angegeben. Die gleichen Ergebnisse sind bei der Behandlung des Sommerweizens Sorte Botanicheskaya 4 in der VI. Periode der Organogenese erhalten.

| Compound | Kornzahl der Ähre bei freier Bestäubung [2] | Kornzahl der Ähre im Isolator [2] | Prozentsatz der Sterilität [2] | Prozentsatz des Ansetzens von Samen bei freier Bestäubung [2] | Kornzahl der Ähre bei freier Bestäubung [6] | Kornzahl der Ähre im Isolator [6] | Prozentsatz der Sterilität [6] | Prozentsatz des Ansetzens von Samen bei freier Bestäubung [6] | Kornzahl der Ähre bei freier Bestäubung [8] | Kornzahl der Ähre im Isolator [8] | Prozentsatz der Sterilität [8] | Prozentsatz des Ansetzens von freier Bestäubung [8] | also measured |
| --- | --- | --- | --- | --- | --- | --- | --- | --- | --- | --- | --- | --- | --- |
| BrCCC(Br)Br [Beispiel 1, 1,1,3-Tribrompropan] | 34,5 | 1,2 | 97,0% | 78,1% |  |  |  |  |  |  |  |  | pest or weed control at 1 %, 20000 g/ha [1]: 98%; LD50 [3]: 540 mg/kg; Kornzahl der Ähre bei freier Bestäubung [4]: 48,6; Kornzahl der Ähre unter Isolator [4]: 0,9; Prozentsatz der Sterilität [4]: 98,2%; Prozentsatz des Ansetzens von Samen bei freier Bestäubung ([4]; control = 100): 89,0%; Kornzahl der Ähre bei freier Bestäubung [5]: 30,1; Kornzahl der Ähre im Isolator [5]: 0,0; Prozentsatz der Sterilität [5]: 100,0%; Prozentsatz des Ansetzens von Samen bei freier Bestäubung [5]: 82,2% |
| BrCC(Br)CBr [Beispiel 4, 1,2,3-Tribrompropan] | 42,0 | 0,0 | 100,0% | 95,0% | 40,5 | 0,2 | 99,5% | 88,4% |  |  |  |  |  |
| CC(Br)CBr (stereo not shown) [Beispiel 5, 1,2-Dibrompropan] |  |  |  |  |  |  |  |  |  |  |  |  | maximale Arbeitsplatzkonzentration (MAK-Wert) [7]: 5 mg/m^3 |
| ClCC(Br)CBr (stereo not shown) [Beispiel 7, 1,2-Dibrom-3-chlorpropan] | 37,4 | 0,0 | 100,0% | 84,6% | 42,6 | 1,1 | 97,3% | 93,0% |  |  |  |  | LD50 [3]: ~170 mg/kg |
| CCCCC(Br)CC(Br)(Br)Br (stereo not shown) [Beispiel 9, 1,1,1,3-Tetrabromheptan] |  |  |  |  | 61,8 | 0,0 | 100,0% | 89,6% | 35,4 | 0,0 | 100,0% | 87,6% | Kornzahl der Ähre bei freier Bestäubung [9]: 28,1; Kornzahl der Ähre im Isolator [9]: 0,0; Prozentsatz der Sterilität [9]: 100,0%; Prozentsatz des Ansetzens von Samen bei freier Bestäubung [9]: 90,9% |
| CCCCC(Br)CC(Br)Br (stereo not shown) [Beispiel 10, 1,1,3-Tribromheptan] |  |  |  |  | 59,6 | 0,0 | 100,0% | 86,4% | 33,8 | 0,0 | 100,0% | 83,7% |  |
| CCCCCC(Br)CBr (stereo not shown) [Beispiel 11, 1,2-Dibromheptan] |  |  |  |  |  |  |  |  | 32,7 | 0,0 | 100,0% | 80,9% | Kornzahl der Ähre bei freier Bestäubung [5]: 29,2; Kornzahl der Ähre im Isolator [5]: 0,0; Prozentsatz der Sterilität [5]: 100,0%; Prozentsatz des Ansetzens von Samen bei freier Bestäubung [5]: 79,8%; Kornzahl der Ähre bei freier Bestäubung [9]: 23,6; Kornzahl der Ähre im Isolator [9]: 0,0; Prozentsatz der Sterilität [9]: 100,0%; Prozentsatz des Ansetzens von Samen bei freier Bestäubung [9]: 76,4% |
